Patent publication US20250066386A1, “INHIBITORS OF KRAS” (BIOMEA FUSION, INC., priority 2022, published 2025)
Like-named read-outs stand apart in the source and are kept apart here. One block for each compound: values may come before it.

Tests used:
[1] = 18-membered ring, DCM, 25.0 °C
[2] = test system: human KRAS G12C mutated cell line MIA PaCa-2; assay: KRas G12C in vitro inhibitory activity: cell proliferation, CellTiter-Glo; format: cell-based
Source text: The present example evaluates the ability of compounds provided herein to inhibit proliferation of KRAS mutant cells.
The inhibitory effect on cell proliferation was investigated in the human KRAS G12C mutated cell line MIA PaCa-2 (Yunis et al., 1977, Int. J. Cancer 19(1):128-135; ATCC catalog no. CRL-1420). Cells were maintained in RPMI-1640 medium (ThermoFisher catalog no. 61870036) supplemented with 10% of Heat Inactivated FBS (ThermoFisher catalog no. A31605) and 1% Pen-Strep (ThermoFisher catalog no. 10378016) and cultured at 37° C. in a humidified incubator with 5% CO2. Cells were grown by adhering to culture flasks, and maintained at 70%-80% confluency.
ATP is present in all metabolically active cells and is considered as a marker for viable cells. The number of metabolically active live cells in culture was determined using the CellTiter-Glo kit (Promega catalog no. G7572), an ATP monitoring system based on the production of luminescence by the reaction of ATP with added UltraGlo® recombinant luciferase (Kawano et al., 2016, PLOS One, 8; 11(7):e0158888), according to the supplier's experimental recommendations. The cell proliferation assay was based on a 96 well plate format.
Test compounds were dissolved at 10 mM in DMSO (Sigma catalog no. D8418; purity >99.9%) and stored at −20° C. Eight concentrations of test compound were assessed in duplicate in an individual test occasion in parallel in the selected cell lines. MRTX-849 and AMG-510 were used as reference compounds and tested in duplicate at eight concentrations. 100% of proliferation is represented by the untreated cells (0.2% DMSO).
On the day of the experiment (TO), cells were detached with TrypLE (ThermoFisher catalog no. 12604054), quantified using the cell viability analyser NucleoCounter (Chemometec NC-200) and resuspended in fresh medium at a cell density of about 5000 cells per 200 μL medium. 200 μL of cell suspension were added to each well of a 96 well plate.
Two hours after seeding cells, compounds were added at desired concentrations using a D300e compound dispenser (Life Sciences Tecan D300) with shaking after each compound addition. Assay plates were incubated at 37° C. in a humidified incubator with 5% CO2.
(§1) To measure 3 day inhibition of cell proliferation on day 3 (T3), assay plates were equilibrated to room temperature for approximately 15 min, and the Promega CellTiterGlo® reagent was added at 40 μL/well. Contents were mixed for 5 min on an orbital shaker to induce cell lysis, and then incubated at room temperature for an additional 10 min in the dark to stabilize the luminescent signal. Luminescence was read using a GloMax GM300 plate reader (Promega) using the luminescence for 96 well plate standard protocol.
as §1, with “measure 7” for “measure 3”, “(T3), 150 μL of growth media was removed from each well of the assay plates and replaced with 150 uL fresh growth media, and fresh compounds added using a D300e compound dispenser (Life Sciences Tecan D300) at desired concentrations with shaking between each compound addition. Assay plates were incubated at 37° C. in a humidified incubator with 5% CO2. On day 7 (T7)” for “(T3),”
Data was expressed as % of inhibition compared to the 0.2% DMSO negative no drug control, and is calculated as follows: % inhibition=100−[(RLU sample)×100/(RLU average controls*)], where * indicates the average for 0.2% DMSO.
Results were analyzed by GraphPad (Prism) and IC50 values were calculated by non-linear regression using four parameter-logistic equation. […]

[3] = Homo sapiens, MIA PaCa-2, 72 h, 3 day inhibition of cell proliferation, CellTiter-Glo luminescence, read-out: MIA PaCa-2 Day 3 IC50

Compound: CCn1c(-c2cccnc2[C@H](C)OC)c2c3cc(ccc31)-c1cccc(c1)C[C@H](NC(=O)OCc1ccccc1)C(=O)N1CCC[C@@H](CC(=O)OC(C)(C)C2)C1
- ring closure, isolated yield ([1]; from CCn1c(-c2cccnc2[C@H](C)OC)c(CC(C)(C)OC(=O)C[C@@H]2CCCNC2)c2cc(-c3cccc(C[C@H](NC(=O)OCc4ccccc4)C(=O)O)c3)ccc21, amide bond, T3P/DIPEA, 32.3 mM, 1.0 h, 3 steps): 44%

Compound: CCn1c(-c2cccnc2[C@H](C)OC)c2c3cc(ccc31)-c1cccc(c1)C[C@H](NC(=O)OC(C)(C)C)C(=O)N1CCC[C@H](C1)C(=O)OCC(C)(C)C2
- ring closure, isolated yield ([1]; from CCn1c(-c2cccnc2[C@H](C)OC)c(CC(C)(C)CO)c2cc(-c3cccc(C[C@H](NC(=O)OC(C)(C)C)C(=O)N4CCC[C@@H](C(=O)O)C4)c3)ccc21, ester bond, EDCI/HOBT/DIPEA, 9.6 mM, 16.0 h, 2 steps): 62%
- ring closure, isolated yield ([1]; from CCn1c(-c2cccnc2[C@H](C)OC)c(CC(C)(C)CO)c2cc(-c3cccc(C[C@H](NC(=O)OC(C)(C)C)C(=O)N4CCC[C@@H](C(=O)O)C4)c3)ccc21, ester bond, EDCI/HOBT/DIPEA, 9.9 mM, 16.0 h, 2 steps): 56%

Compound: CCn1c(-c2cccnc2[C@H](C)OC)c2c3cc(ccc31)-c1cccc(c1)C[C@H](NC(=O)OC(C)(C)C)C(=O)N1CC[C@@H](C1)C(=O)OCC(C)(C)C2
- ring closure, isolated yield ([1]; from CCn1c(-c2cccnc2[C@H](C)OC)c(CC(C)(C)CO)c2cc(-c3cccc(C[C@H](NC(=O)OC(C)(C)C)C(=O)N4CC[C@H](C(=O)O)C4)c3)ccc21, ester bond, EDC/HOBT/DIPEA, 47.2 mM, 16.0 h, 2 steps): 60%

Compound: CCn1c(-c2cccnc2[C@H](C)OC)c2c3cc(ccc31)-c1csc(n1)C[C@H](NC(=O)[C@H](C(C)C)N(C)C(=O)[C@H]1CCN(CC#CC(=O)N3CCC3)C1)C(=O)N1CCC[C@H](N1)C(=O)OCC(C)(C)C2 (atropisomer, axis not shown) [Compound 116, (3S)-1-(4-(azetidin-1-yl)-4-oxobut-2-yn-1-yl)-N-((2S)-1-(((6^3S,4S,Z)-1^1-ethyl-1^2-(2-((S)-1-methoxyethyl)pyridin-3-yl)-10,10-dimethyl-5,7-dioxo-6^1,6^2,6^3,6^4,6^5,6^6-hexahydro-1^1H-8-oxa-2(4,2)-thiazola-1(5,3)-indola-6(1,3)-pyridazinacycloundecaphane-4-yl)amino)-3-methyl-1-oxobutan-2-yl)-N-methylpyrrolidine-3-carboxamide]
- IC50 [2, 3]: > 100 nM
- IC50 ([2]; Homo sapiens, MIA PaCa-2, 7 day inhibition of cell proliferation, medium and compound renewed on day 3, CellTiter-Glo luminescence, read-out: MIA PaCa-2 Day 7 IC50): 1 to 10 nM

More lines, now with the values ahead:

- IC50 [2, 3]: < 1 nM
Compound: CCn1c(-c2cccnc2[C@H](C)OC)c2c3cc(ccc31)-c1cccc(c1)C[C@H](NC(=O)[C@H](C(C)C)N(C)C(=O)[C@H]1CCN(C/C=C/C(=O)N3CC(F)C3)C1)C(=O)N1CCC[C@H](N1)C(=O)OCC(C)(C)C2 (atropisomer, axis not shown) [Compound 110, (3S)—N-((2S)-1-(((6^3S,4S)-1^1-ethyl-1^2-(2-((S)-1-methoxyethyl)pyridin-3-yl)-10,10-dimethyl-5,7-dioxo-6^1,6^2,6^3,6^4,6^5,6^6-hexahydro-1^1H-8-oxa-1(5,3)-indola-6(1,3)-pyridazina-2(1,3)-benzenacycloundecaphane-4-yl)amino)-3-methyl-1-oxobutan-2-yl)-1-((E)-4-(3-fluoroazetidin-1-yl)-4-oxobut-2-en-1-yl)-N-methylpyrrolidine-3-carboxamide]

- IC50 ([2]; 7 day inhibition of cell proliferation, medium and compound renewed on day 3, CellTiter-Glo luminescence, read-out: MIA PaCa-2 Day 7 IC50): > 100 nM
- IC50 [2, 3]: > 100 nM
Compound: CCn1c(-c2cccnc2[C@H](C)OC)c2c3cc(ccc31)-c1cccc(c1)C[C@H](NC(=O)[C@H](C(C)C)N(C)C(=O)[C@H]1CCN(C(=O)C#CCN3CCOCC3)C1)C(=O)N1CCC[C@H](C1)C(=O)OCC(C)(C)C2 (atropisomer, axis not shown) [Compound 2, (3S)—N-((2S)-1-(((6^3R,4S)-1^1-ethyl-1^2-(2-((S)-1-methoxyethyl)pyridin-3-yl)-10,10-dimethyl-5,7-dioxo-1^1H-8-oxa-1(5,3)-indola-6(1,3)-piperidina-2(1,3)-benzenacycloundecaphane-4-yl)amino)-3-methyl-1-oxobutan-2-yl)-N-methyl-1-(4-morpholinobut-2-ynoyl)pyrrolidine-3-carboxamide]

- IC50 [2, 3]: > 100 nM
Compound: C=CC(=O)N1CC[C@H](C(=O)N(C)[C@H](C(=O)N[C@H]2Cc3cccc(c3)-c3ccc4c(c3)c(c(-c3cccnc3[C@H](C)OC)n4CC)CC(C)(C)n3cc(nn3)[C@@H]3CCCN(N3)C2=O)C(C)C)C1 [Compound 104, (3S)-1-acryloyl-N-((2S)-1-(((6^3S,8S,Z)-21-ethyl-2^2-(2-((S)-1-methoxyethyl)pyridin-3-yl)-4,4-dimethyl-7-oxo-6^1,6^2,6^3,6^4,6^5,6^6-hexahydro-2^1H,5^1H-2(5,3)-indola-6(3,1)-pyridazina-5(1,4)-triazola-1(1,3)-benzenacyclononaphane-8-yl)amino)-3-methyl-1-oxobutan-2-yl)-N-methylpyrrolidine-3-carboxamide]
